“Also recorded” adds a separate entry of the source. Bridges are numbered along the chain shown (N, C = ends). Where no end group is shown, it is not given here. [ ]: non-standard residue; d: D form. The star is where a group is joined. PhAc = O=C(Cc1ccccc1)*; Allyl = C=CC*
Test system: HeLa cells
Test: Autophagy induction judged by p62 and LC3 immunoblots together
Type: cell-based
Set-up: key to Activity compared to wild-type WT / Activity (μM) 10, single symbol / Activity (μM) 30, single symbol / Activity (μM) 50, single symbol / Activity (μM) 100, single symbol: −: activity not reported; 0: decreased vs. WT; +: similar to WT; ++: modest increase vs. WT; +++: significant increase vs. WT
Details: 10 μM; Table 6, control DMSO; one symbol only
Procedure: This 10-mer sequence was substituted with various thiol-containing amino acids at various positions, and then cross-linked with various linkers as described above (FIG. 5, a and FIG. 6).
Cells were treated with peptide in OPTI-MEM (Thermo Scientific) acidified with 0.15% (v/v) 6N HCl for 3 hour. Cells were rinsed with Dulbecco's phosphate buffered saline (PBS) and lysed in lysis buffer (20 mM HEPES, 150 mM NaCl, 1 mM EDTA, 1% Triton X-100, protease inhibitor cocktail (Roche) on ice for 1 hour. Cell lysates were centrifuged at 16,000 g for 10 min at 4° C. and analyzed by SDS-PAGE and transferred to PVDF membranes. The membranes were blocked 5% non-fat dry milk (NFDM) in PBST (PBS+0.05% Tween-20) for 1 hour, then incubated overnight at 4° C. with primary antibody in 5% NFDM in PBST. The blots were washed with PBST and incubated with HRP-conjugated secondary antibodies diluted in 5% NFDM in PBST for 1 hour at room temperature. Membranes were washed with PBST and visualized with SuperSignal West Pico Chemiluminescent Substrate (Thermo Scientific). Semi-quantitative results were obtained by noting the lowest concentration at which both p62 degradation and LC3-I to LC3-II conversion were observed.
(SEQ ID NO: 16)-Sequence. […] The N-terminus was capped with an acetyl group while the C terminus was capped with a —C(O)—NH2 group. The activity reported is a summation of results from both the p62 degradation assay and the LC3 marker assay.

Row | Substance | Activity (μM) 10, single symbol
1 | VWNATFHIWHD [Compound T17, Tat-linked linear peptide] | +

Same assay, conditions: 10 μM; Table 8; one symbol only

Row | Substance | Activity (μM) 10, single symbol
2 | VCNATCHIWH (V[dC]NAT[dC]HIWH; cysteine pairing not given here; also: Formula I modifications, R1 T, Z MP) [Compound 75] | +

Same assay, conditions: HeLa cells, immunoblot, 3 hour treatment

Row | Substance | concentration at which autophagy induction (p62 degradation and LC3 lipidation) was observed [µM]
3 | (pa)-VcNAcFHIAH (pa-V[dC]NA[dC]FHIAH; linker 2-5 via ortho‑xylene (inferred)) [Trp9Ala] | 100
4 | (pa)-VcNAcFHIWA (pa-V[dC]NA[dC]FHIWA; linker 2-5 via ortho‑xylene (inferred)) [His10Ala] | 100
5 | (pa)-VcNAcFHIWH [LL5-o] (VCNACFHIWH; not fully specified (residues 2, 5, N-terminus, bridges); printed as (pa)-VcNAcFHIWH; cysteine pairing not given here) [ortho-xylene linker; stereoisomer with two L-cysteines, negative control] | 100
6 | (pentene)-VcNAcFHIWH [pentene-DD5-o] | 50

Same assay, conditions: HeLa cells, p62 and LC3 immunoblots

Row | Substance | autophagy induction, result in words | activity relative to DD5-o (fold worse) [fold]
7 | (pa)-VcNAcFAIWH (pa-V[dC]NA[dC]FAIWH; linker 2-5 via ortho‑xylene (inferred)) [His7Ala] | milder effects on activity | –
8 | (pa)-VcNAcFHAWH (pa-V[dC]NA[dC]FHAWH; linker 2-5 via ortho‑xylene (inferred)) [Ile8Ala] | complete loss of activity; also recorded: complete loss in activity | –
9 | (pa)-VcNAcFHIAH (pa-V[dC]NA[dC]FHIAH; linker 2-5 via ortho‑xylene (inferred)) [Trp9Ala] | significantly decreased activity | –
10 | (pa)-VcNAcFHIWA (pa-V[dC]NA[dC]FHIWA; linker 2-5 via ortho‑xylene (inferred)) [His10Ala] | significantly decreased activity | 5
11 | (pa)-VcNAcFHIWH [DD5-allyl] (pentynoyl-V[dC](Allyl)NA[dC](Allyl)FHIWH; not fully specified (C-terminus); printed as (pa)-VcNAcFHIWH [DD5-allyl]) [allyl, unstapled] | did not induce autophagy | –
12 | (pa)-VcNAcFHIWH [DD5-m] (pa-V[dC]NA[dC]FHIWH; linker 2-5 via meta‑xylene (inferred)) | did not induce autophagy | –
13 | (pa)-VcNAcFHIWH [LL5-o] (VCNACFHIWH; not fully specified (residues 2, 5, N-terminus, bridges); printed as (pa)-VcNAcFHIWH; cysteine pairing not given here) [ortho-xylene linker; stereoisomer with two L-cysteines, negative control] | no autophagy-inducing activity | –
14 | (pentene)-VcNAcFHIWH [pentene-DD5-o] | induced autophagy, but to a somewhat lesser extent than DD5-o | –
15 | (phenyl)-VcNAcFHIWH (PhAc-V[dC]NA[dC]FHIWH; linker 2-5 via ortho‑xylene (inferred); not fully specified (C-terminus); printed as (phenyl)-VcNAcFHIWH) [phenyl-DD5-o] | showed no activity | –
16 | VFDATFEIWHD [Compound T3, Tat-linked linear peptide] | less than Tat-beclin-1 | –

Same assay, conditions: Tat-linked linear peptides; summation of p62 degradation assay and LC3 marker assay

Row | Substance | Activity compared to wild-type WT
17 | CFNATFEIWHD [Compound T1, Tat-linked linear peptide] | +
18 | DFNATFEIWHD [Compound T23, Tat-linked linear peptide] | 0
19 | FNATFEIWH [Compound T30, Tat-linked linear peptide] | +
20 | FNATFEIWHD [Compound T21, Tat-linked linear peptide] | ++
21 | FNATFHIWH [Compound T31, Tat-linked linear peptide] | +
22 | GFNATFEIWHD [Compound T24, Tat-linked linear peptide] | 0
23 | TFNATFEIWHD [Compound T22, Tat-linked linear peptide] | 0
24 | VFNACFEIWHD [Compound T5, Tat-linked linear peptide] | 0
25 | VFNATFDIWHD [Compound T7, Tat-linked linear peptide] | +
26 | VFNATFEFWHD [Compound T18, Tat-linked linear peptide] | +
27 | VFNATFEIFHD [Compound T9, Tat-linked linear peptide] | +
28 | VFNATFEIWHE [Compound T11, Tat-linked linear peptide] | +
29 | VFNATFEIWYD [Compound T10, Tat-linked linear peptide] | +
30 | VFNATFELWHD [Compound T8, Tat-linked linear peptide] | ++
31 | VFNATFEMWHD [Compound T16, Tat-linked linear peptide] | +
32 | VFNATFERWHD [Compound T20, Tat-linked linear peptide] | +
33 | VFNATFEVWHD [Compound T14, Tat-linked linear peptide] | +

Row | Substance | Activity compared to wild-type WT
34 | VFNATFEYWHD [Compound T19, Tat-linked linear peptide] | +
35 | VFNATWEIWHD [Compound T6, Tat-linked linear peptide] | 0
36 | VLNATFEIWHD [Compound T15, Tat-linked linear peptide] | +
37 | VWAATFHIWHD [Compound T36, Tat-linked linear peptide] | +
38 | VWNAAFHIWHD [Compound T37, Tat-linked linear peptide] | ++
39 | VWNATFAIWHD [Compound T39, Tat-linked linear peptide] | +++
40 | VWNATFEIWHD [Compound T2, Tat-linked linear peptide] | ++
41 | VWNATFELWHD [Compound T12, Tat-linked linear peptide] | +
42 | VWNATFHIAHD [Compound T41, Tat-linked linear peptide] | +
43 | VWNATFHIWAD [Compound T42, Tat-linked linear peptide] | +++
44 | VWNATFHIWH [Compound T33, Tat-linked linear peptide] | +++
45 | VWNATFHIWHD [Compound T17, Tat-linked linear peptide] | +++
46 | VWNATFHYWHD [Compound T26, Tat-linked linear peptide] | +++
47 | VYNATFEIWHD [Compound T13, Tat-linked linear peptide] | 0
48 | WNATFHIW [Compound T35, Tat-linked linear peptide] | ++
49 | WNATFHIWH [Compound T32, Tat-linked linear peptide] | ++
50 | WNATFHIWHD [Compound T34, Tat-linked linear peptide] | +++

— patent publication US10993983B2, “Cyclic peptide epitopes and small-molecule mimics for inducing autophagy” (TRUSTEES OF TUFTS COLLEGE, priority 2016, dated 2021)
